The results in this text go back to US20220064696A1, “TARGET ENGAGEMENT ASSAY FOR RAS PROTEINS” (Promega Corporation, priority 2020, published 2022).

Type in all cases: binding
For one assay, the target named is T1, KRAS2B(G12V) (Homo sapiens, UniProt P01116, G12V).
T1 construct: expressed in transfected cells; host or cells: HEK293
As to the kind of experiment: Target engagement at KRAS(G12V) homomultimeric complexes, NanoBiT oligomer configuration with SmBiT tag. Conditions: live HEK293 cells, LgBiT-KRAS2B(G12V) and SmBiT-KRAS2B(G12V), tracer JRW-2192, FIG. 5. Here is the method: To explore this concept, the NanoBiT™ Technology was used to observe KRAS multimeric (e.g., dimer) complexes by NanoBiT tagging of KRAS, wherein BRET donor signal originates from an oligomeric KRAS. In a tissue culture flask, HEK293 cells per well were transfected with KRAS-NanoBiT fusions, LgBiT-KRAS2B(G12V) and SmBiT-KRAS2B(G12V) expressed from pNB3K or pNB4K plasmids along with pGEM-3Z carrier DNA (1:1:8 ratio by mass). Transfections were performed using 3:1 FuGENE HD:plasmid ratios. 24 hours post transfection, cells were treated with compound JRW-2192 and BI-2852.
After incubation in live cells, NanoBRET-TE substrate solution was added to a final concentration of 1×, and BRET was measured on a Glomax Discover plate reader.

The next assay addresses T2, KRAS2B(Q61H) (Homo sapiens, UniProt P01116, Q61H).
T2 construct: expressed in transfected cells; host or cells: HEK293
As to the kind of experiment: RAS NanoBiT target engagement assay in cells (LgBiT-RAS and SmBiT-RAS). Conditions: HEK293 cells, tracer JRW-2310, FIG. 22. Here is the method: (§1) To explore this concept, the NanoBiT™ Technology was used to form RAS multimeric (e.g., dimer) complexes by NanoBiT tagging of RAS, wherein BRET donor signal originates from an oligomeric RAS. In a tissue culture flask, HEK293 cells per well were transfected with RAS-NanoBiT fusions, LgBiT-RAS and SmBiT-RAS expressed from pNB3K or pNB4K plasmids along with pGEM-3Z carrier DNA (1:1:8 ratio by mass). Transfections were performed using 3:1 FuGENE HD:plasmid ratios. 24 hours post transfection, cells were treated with compound JRW-2219, JRW-2220, or JRW-2310, and BI-2852.

Another assay deals with T3, HRAS1 (Homo sapiens, UniProt P01112).
T3 construct: expressed in transfected cells; host or cells: HEK293
The description is as above. To be noted: HEK293 cells, LgBiT-HRAS1 and SmBiT-HRAS1, tracer JRW-2219 or JRW-2220, FIGS. 18-19. The protocol:
as §1

The target in the next assay is T4, KRAS2B(G12D) (Homo sapiens, UniProt P01116, G12D).
T4 construct: expressed in transfected cells; host or cells: HEK293
The assay is described as above. Conditions: HEK293 cells, tracer JRW-2219 or JRW-2220, FIGS. 14-15. The protocol: as §1

Each structure is given as a SMILES string.

On to `Cn1cnc(Cn2ccc3ccc(CNCc4[nH]c5ccccc5c4[C@H]4NC(=O)c5ccc(O)cc54)cc32)c1` [BI-2852], for which the “inhibition of the BRET signal induced by the tracer (functional competition)” value at KRAS2B(G12V) is “dose-dependent inhibition of the BRET signal”. The “target engagement (BRET, competition with the RAS binding agent)” value at KRAS2B(Q61H), at HRAS1 and at KRAS2B(G12D) was “target engagement was observed” in each case.
